The record followed here is patent US20220000817A1, “PROGNOSIS AND TREATMENT OF METASTATIC CANCER” (Academia Sinica, priority 2018, published 2022).

In series [1] the test system is H1299 cells. The series is described as follows: MTT cell growth after EFHD2 knockdown. The format is cell-based, human. As to conditions: EFHD2 knockdown in H1299 cells. How it is done:
MTT assay. […] The absorbance of the solution at 570 nm was measured by spectrophotometer.
To determine whether EFHD2 contributes to the metastatic abilities of lung adenocarcinoma cells, the pcDNA vector was used to overexpress EFHD2 in A549 cells and shRNA (i.e., shEFHD2) to knockdown EFHD2 in H1299 cells.

Series [2] deals with H1299 cells. The series is described as follows: Wound-healing migration and transwell invasion after EFHD2 knockdown. The format is cell-based, human. As to conditions: EFHD2 knockdown in H1299 cells. As to the method:
FIG. 1. EFHD2 increases the metastatic abilities of lung adenocarcinoma cells. The effects of EFHD2 overexpression in A549 cells and EFHD2-knockdown in H1299 cells on metastatic abilities were determined. (A) Migration ability was analyzed by wound-healing assay. (B) Invasive ability was analyzed by transwell invasion assay. (C) Invadopodia were visualized by colocalized of cortactin (green) and F-actin (red). (D) Quantification of cancer cells with invadopodia. N=100 cells/sample. **, P<0.01.
Wound healing assay. The in vitro migration assay was performed using a Culture-Insert well (ibidi GmbH, German/v). Cancer cells (4.5×10^4 cells) were cultured in suitable media in the device for 24 hr. After removal of the Culture-Insert, cancer cells were cultured for an additional 8 hr. The migration distance of cancer cells was recorded, and the migration area was measured using ImageJ software.
Matrigel invasion assay. For in vitro invasion assay, cancer cells (1.5×10^5 cells in 200 μL) were suspended in the upper half of a PET membrane transwell insert chamber (BD Biosciences), which was coated with Matrigel (1 mg/mL; BD Biosciences), on a 24-well plate. […]

As for “shEFHD2: short hairpin RNA directing cleavage of EFHD2 gene RNA; SEQ ID NO: 4, encoded by SEQ ID NO: 1 (GGCCCUCUUCUACAAGUUCGUCAUAGAGCUCUAUGACGAACUUGUAGAAGAGAAAAAAC; expressed or natural sequence)”, the cell growth entry in series [1] is “did not obviously affect cell growth”. The invasiveness result in series [2] (transwell invasion assay) is “opposite effects”. In series [2] (wound-healing assay), the migration entry was “opposite effects”.
